Legend:
[1] = target: human metabotropic glutamate receptor 5 (hmGluR5); experiment: Calcium mobilization (FLIPR) assay, negative allosteric modulation of the EC80 glutamate response; assay type: cell-based; settings: HEK 293 cells, inhibition of EC80 glutamate response
Procedure: (§1) The cDNA for human metabotropic glutamate receptor 5 (hmGluR5) was a generous gift from S. Nakanishi (Kyoto University, Kyoto, Japan). The […] was stably expressed in a HEK 293 cell line and grown in Dulbecco's Modified Eagle Medium (DMEM) (Invitrogen, Carlsbad, Calif.) with supplements (10% bovine calf serum, 4 mM glutamine, 100 units/mL penicillin, 100 μg/mL streptomycin and […]) at 37° C., 5% CO2. Twenty-four hours prior to assay, cells were seeded into 384-well black wall microtiter plates coated with poly-D-lysine. Just prior to assay, media was aspirated and cells dye-loaded (25 μL/well) with 3 μM Fluo-4/0.01% pluronic acid in assay buffer (Hank's Balanced Saline Solution (HBSS)): 150 mM NaCl, 5 mM KCl, 1 mM CaCl2, 1 mM MgCl2, plus 20 mM N-2-Hydroxyethylpiperazine-N′-2-ethanesulfonic acid (HEPES), pH 7.4, 0.1% bovine serum albumin (BSA) and 2.5 mM probenicid) for 1 hour in 5% CO2 at 37° C. After excess dye was discarded, cells were washed in assay buffer and layered with a final volume equal to 30 μL/well. Basal fluorescence is monitored in a fluorometric imaging plate reader (FLIPR) (Molecular Devices, Sunnyvale, Calif.) with an excitation wavelength of 488 nm and an emission range of 500 to 560 nm. Laser excitation energy was adjusted so that basal fluorescence readings were approximately 10,000 relative fluorescent units. Cells were stimulated with an EC20 or an EC80 concentration of glutamate in the presence of a compound to be tested, both diluted in assay buffer, and relative fluorescent units were measured at defined intervals (exposure=0.6 sec) over a 3 min period at room temperature. Basal readings derived from negative controls were subtracted from all samples. Maximum change in fluorescence was calculated for each well. Concentration-response curves derived from the maximum change in fluorescence were analyzed by nonlinear regression (Hill equation).
A negative allosteric modulator (NAM) can be identified from these concentration-response curves if a compound produces a concentration dependent inhibition of the EC80 glutamate response.

[2] = target: human metabotropic glutamate receptor 5 (hmGluR5) (UniProt P31424); experiment: Calcium mobilization (FLIPR) assay, positive allosteric modulation of the EC20 glutamate response; assay type: cell-based; settings: HEK 293 cells; for maximum modulation (Emax): EC20 glutamate response; for EC50: increase in EC20 glutamate response
Procedure: as §1
A silent allosteric modulator (SAM) can be identified by using a combination of both the calcium mobilization assay data and the radioligand binding data. As used herein, the term “silent allosteric modulator” refers to a ligand that binds to an allosteric site of the receptor but has no measurable intrinsic efficacy.

O=C(c1cnc(C#Cc2ccccc2)s1)N1CCCC1 [Example 4, (2-Phenylethynyl-thiazol-5-yl)-pyrrolidin-1-yl-methanone]
IC50 [1]: 3.2 nM

Cc1cccc(C#Cc2ncc(C(=O)N3CCCCC3)s2)n1 [Example 193, [2-(6-Methyl-pyridin-2-ylethynyl)-thiazol-5-yl]-piperidin-1-yl-methasone]
IC50 [1]: 29 nM

CC(C)(C)OC(=O)N1CC2CN(C(=O)c3cnc(C#Cc4ccccc4)s3)CC2C1 (stereo not shown) [Example 171, 5-(2-Phenylethynyl-thiazole-5-carbonyl)-hexahydro-pyrrolo[3,4-c]pyrrole-2-carboxylic acid tert-butyl ester]
IC50 [1]: 25 nM

O=C(c1cnc(C#Cc2ccccn2)s1)N1CCCC1 [Example 198, (2-Pyridin-2-ylethynyl-thiazol-5-yl)-pyrrolidin-1-yl-methanone]
IC50 [1]: 20 nM

O=C(c1cnc(C#Cc2ccccn2)s1)N1CCCCC1 [Example 191, Piperidin-1-yl-(2-pyridin-2-ylethynyl-thiazol-5-yl)-methanone]
IC50 [1]: 29 nM

COC[C@@H]1CCCN1C(=O)c1cnc(C#Cc2ccccc2)s1 [Example 168, ((S)-2-Methoxymethyl-pyrrolidin-1-yl)-(2-phenylethynyl-thiazol-5-yl)-methanone]
IC50 [1]: 27 nM

COCC1CCCN(C(=O)c2cnc(C#Cc3ccccc3)s2)C1 (stereo not shown) [Example 123, (3-Methoxymethyl-piperidin-1-yl)-(2-phenylethynyl-thiazol-5-yl)-methanone]
IC50 [1]: 33 nM

O=C(c1ccccc1)c1cnc(C#Cc2ccccc2)s1 [Example 237, Phenyl-(2-phenylethynyl-thiazol-5-yl)-methanone]
IC50 [1]: 360 nM

CC(=O)c1cnc(C#Cc2ccccc2)s1 [Example 239, 1-(2-Phenylethynyl-thiazol-5-yl)-ethanone]
maximum modulation (Emax) [2]: 170%
EC50 [2]: 190 nM

O=C(c1cnc(C#Cc2ccccc2)s1)N1CCC(C(F)(F)F)CC1 [Example 111, (2-Phenylethynyl-thiazol-5-yl)-(4-trifluoromethyl-piperidin-1-yl)-methanone]
maximum modulation (Emax) [2]: 130%
EC50 [2]: 64 nM

COc1ccc(C#Cc2ncc(C(=O)N3CCCCC3)s2)cc1 [Example 192, [2-(4-Methoxy-phenylethynyl)-thiazol-5-yl]-piperidin-1-yl-methasone]
maximum modulation (Emax) [2]: 64%
EC50 [2]: 2200 nM

CC1(O)CCCN(C(=O)c2cnc(C#Cc3ccccc3)s2)CC1 (stereo not shown) [Example 151, (4-Hydroxy-4-methyl-azepan-1-yl)-(2-phenylethynyl-thiazol-5-yl)-methanone]
maximum modulation (Emax) [2]: 61%
EC50 [2]: 73 nM

O=C(c1cnc(C#Cc2ccccc2)s1)N1CCC2(CCCO2)CC1 [Example 78]
maximum modulation (Emax) [2]: 120%
EC50 [2]: 200 nM

O=C(c1cnc(C#Cc2ccccc2)s1)N1CC2CCC1C2 (stereo not shown) [Example 146, (2-Aza-bicyclo[2.2.1]hept-2-yl)-(2-phenylethynyl-thiazol-5-yl)-methanone]
maximum modulation (Emax) [2]: 69%
EC50 [2]: 8.2 nM

O=C(c1cnc(C#Cc2ccc(F)cc2)s1)N1CCC(O)CC1 [Example 29, [2-(4-Fluoro-phenylethynyl)-thiazol-5-yl]-(4-hydroxy-piperidin-1-yl)-methanone]
maximum modulation (Emax) [2]: 100%
EC50 [2]: 2400 nM

C(#Cc1ncc(CN2CC3CCC2C3)s1)c1ccccc1 (stereo not shown) [Example 218, 2-(2-Phenylethynyl-thiazol-5-ylmethyl)-2-aza-bicyclo[2.2.1]heptane]
maximum modulation (Emax) [2]: 79%
EC50 [2]: 380 nM

O=C(c1cnc(C#Cc2ccccc2)s1)N1CCN(c2ccccc2)CC1 [Example 41, (2-Phenylethynyl-thiazol-5-yl)-(4-phenyl-piperazin-1-yl)-methanone]
maximum modulation (Emax) [2]: 52%
EC50 [2]: 360 nM

CC1(O)CCN(C(=O)c2cnc(C#Cc3ccccc3)s2)C1 (stereo not shown) [Example 137, (3-Hydroxy-3-methyl-pyrrolidin-1-yl)-(2-phenylethynyl-thiazol-5-yl)-methanone]
maximum modulation (Emax) [2]: 38%
EC50 [2]: 110 nM
